Assay results: publication PMC12732608, “Synthesis and Evaluation of Novel 2-((1H-1,2,4-triazol-5-yl)thio)-N-benzylidene-N-phenylacetohydrazide as Potential Antimicrobial Agents” (International Journal of Molecular Sciences, 2025)
Entries after “also recorded” stand apart in the source; their conditions may differ.

Tests used:
S. aureus = system: S. aureus; set-up: method as in PMID 22906969; conditions: comparable to ampicillin; cited from earlier work
E. coli = system: E. coli; set-up: method as in PMID 22906969; conditions: comparable to ampicillin; cited from earlier work
[1] = MTT cytotoxicity assay on HEK cells; format: cell-based; conditions: human, HEK (human embryonic kidney) cells, compared to DMSO control, read-out: cell viability
Procedure: Cytotoxicity was evaluated on HEK (human embryonic kidney) cell lines using the MTT assay. […] Cells were grown in a medium that was supplemented with 10% FBS and 1% penicillin–streptomycin. This was incubated at 37 °C in a 5% CO2 atmosphere for 24 h. Cells were seeded at 1 × 10^3 cells/well in 96-well plates and allowed to adhere overnight. They were then treated with the test compounds, dissolved in DMSO, at a uniform concentration. […] The control wells contained untreated cells or cells treated with DMSO alone. After 24 h of treatment, 10 µL of the MTT solution (5 mg/mL) was added to each well and incubated for 3 h to allow formazan crystal formation. A solubilization solution (100 µL) was then added to dissolve the crystals. The absorbance at 570 nm was measured using a microplate reader. Cell viability was calculated as a percentage relative to the untreated control. All assays were performed in triplicate.

[2] = system: Klebsiella aerogenes ATCC 13048; assay: Growth kinetics assay (OD600) against K. aerogenes; format: cell-based; conditions: 0.5 mg/mL, 6 h, K. aerogenes ATCC 13048
Procedure: (§1) Both Gram-positive and Gram-negative bacterial strains were employed in the experiment to assess antibacterial activities of the synthesized compounds. Gram-negative Klebsiella aerogenes ATCC 13048 and Gram-positive Enterococcus species MVBP-18 strains were used for the study. Bacterial strains of both were cultured in Luria–Bertani (LB) broth for optimal growth conditions. Bacterial cultures were sustained by culturing a fresh colony from newly streaked LB agar plates to 5 mL of LB medium and incubated at 37 °C with shaking at 200 rpm continuously for 16–18 h in order to achieve the logarithmic growth phase. Overnight cultures, after incubation, were standardized by dilution to an OD600 of 0.05, which contained equal bacterial inoculum for any experimental condition. These optimized cultures were employed for subsequent antibacterial tests, such as growth kinetics analysis, to determine the impact of the test compound on bacterial growth. A preliminary screening was conducted in a 96-well microplate format. Standardized bacterial cultures were treated with the compounds at a final concentration of 0.5 mg/mL. Control wells included untreated bacteria and a DMSO control. The plate was incubated at 37°C, with shaking at 200 rpm continuously, and bacterial growth was monitored by measuring the OD600 every hour for six hours using a microplate reader ( BioTek Synergy H1). The assay was performed in triplicate.

Enterococcus sp. = assay: CFU enumeration (time-kill) against Enterococcus sp.; format: cell-based; conditions: over 3 h incubation
Procedure: as §1, with “[…] Bacterial” for “A preliminary screening was conducted in a 96-well microplate format. Standardized bacterial cultures were treated with the compounds at a final concentration of 0.5 mg/mL. Control wells included untreated bacteria and a DMSO control. The plate was incubated at 37°C, with shaking at 200 rpm continuously, and bacterial”, “both” for “measuring”, “readings over 4–7 h and colony-forming unit (CFU) enumeration. For CFU counting, aliquots from the wells were serially diluted, plated on LB agar, and incubated overnight at 37 °C.” for “every hour for six hours using a microplate reader ( BioTek Synergy H1).”, “resulting colonies were counted to determine the CFU/mL. All validation experiments were also conducted” for “assay was performed”

K. aerogenes = assay: CFU enumeration (time-kill) against K. aerogenes; format: cell-based, Klebsiella aerogenes; conditions: for effect on viable bacterial count (CFU assay), in words: within 3 h; for terminal viable bacterial count: terminal values (3 h time course)
Procedure: as §1, with “[…] Bacterial” for “A preliminary screening was conducted in a 96-well microplate format. Standardized bacterial cultures were treated with the compounds at a final concentration of 0.5 mg/mL. Control wells included untreated bacteria and a DMSO control. The plate was incubated at 37°C, with shaking at 200 rpm continuously, and bacterial”, “both” for “measuring”, “readings over 4–7 h and colony-forming unit (CFU) enumeration. For CFU counting, aliquots from the wells were serially diluted, plated on LB agar, and incubated overnight at 37 °C.” for “every hour for six hours using a microplate reader ( BioTek Synergy H1).”, “resulting colonies were counted to determine the CFU/mL. All validation experiments were also conducted” for “assay was performed”

[3] = system: Enterococcus species MVBP-18; assay: Growth kinetics assay (OD600) against Enterococcus sp.; format: cell-based; conditions: 0.5 mg/mL, 6 h, Enterococcus sp. MV BP 18
Procedure: as §1, with “The assay was performed in triplicate.” left out

[4] = set-up: method as in earlier work; conditions: comparable to ciprofloxacin; cited from earlier work

Structure (SMILES) | viability at 24 h, 0.5 mg/mL [1] | growth inhibition (OD600 growth kinetics) [2] | effect on viable bacterial count (CFU assay), in words (K. aerogenes) | also measured
NNC(=O)CSc1nc(N=Cc2ccc(Br)cc2)n[nH]1 [2-{3-[4-bromobenzylidene)amino]-1H-1,2,4-triazol-5-ylthio}acetohydrazide] |  |  |  | antibacterial activity (S. aureus): strong antibacterial activity; antibacterial activity (E. coli): strong antibacterial activity
O=C(CSc1nc[nH]n1)N(/N=C/c1ccccc1)c1ccccc1 [Compound 4a, E-2-((1H-1,2,4-triazol-3-yl)thio)-N′-benzylidene-N-phenylacetohydrazide] | 72.6% |  |  | 
O=C(CSc1nc[nH]n1)N(/N=C/c1ccccc1Cl)c1ccccc1 [Compound 4b, E-2-((1H-1,2,4-triazol-3-yl)thio)-N′-(2-chlorobenzylidene)-N-phenylacetohydrazide] | 68.7% | mild inhibitory activities |  | 
O=C(CSc1nc[nH]n1)N(/N=C/c1ccc(Br)cc1)c1ccccc1 [Compound 4e, E-2-((1H-1,2,4-triazol-3-yl)thio)-N′-(4-bromobenzylidene)-N-phenylacetohydrazide] | 87.4% |  |  | 
O=C(CSc1nc[nH]n1)N(/N=C/c1ccccc1F)c1ccccc1 [Compound 4g, E-2-((1H-1,2,4-triazol-3-yl)thio)-N′-(2-fluorobenzylidene)-N-phenylacetohydrazide] | 96% | most significant growth inhibition; also recorded: highest degree of growth inhibition | reduced viable numbers by several orders of magnitude | viable bacterial counts (Enterococcus sp.): ~ 10^7 CFU/mL; viable counts (K. aerogenes; at 2 h, maintained at 3 h): below 10^7 CFU/mL; growth inhibition (OD600 growth kinetics) [3]: most potent inhibitor
O=C(CSc1nc[nH]n1)N(/N=C/c1cccc(Br)c1)c1ccccc1 [Compound 4h, E-2-((1H-1,2,4-triazol-3-yl)thio)-N′-(3-bromobenzylidene)-N-phenylacetohydrazide] | 73% | mild inhibitory activities |  | 
O=C(CSc1nc[nH]n1)N(/N=C/c1c(Cl)cccc1Cl)c1ccccc1 [Compound 4j, E-2-((1H-1,2,4-triazol-3-yl)thio)-N′-(2,6-dichlorobenzylidene)-N-phenylacetohydrazide] | 71.6% |  |  | 
COc1cc(/C=N/N(C(=O)CSc2nc[nH]n2)c2ccccc2)cc(OC)c1OC [Compound 4l, E-2-((1H-1,2,4-triazol-3-yl)thio)-N-phenyl-N′-(3,4,5-trimethoxybenzylidene)acetohydrazide] | 55.8% | mild inhibitory activities | moderate-level reduction | terminal viable bacterial count (K. aerogenes): 10^8–10^9 CFU/mL
O=C(CSc1nc[nH]n1)N(/N=C/c1cccs1)c1ccccc1 [Compound 4n, E-2-((1H-1,2,4-triazol-3-yl)thio)-N-phenyl-N′-(thiophen-2-ylmethylene)acetohydrazide] | 52.8% | most significant growth inhibition | moderate-level reduction | terminal viable bacterial count (K. aerogenes): 10^8–10^9 CFU/mL
Cc1ccc(-n2c(SCC(=O)NC3CCCCC3)nnc2-c2ccncc2)cc1 [N-Cyclohexyl-2-[5-(4-pyridyl)-4-(p-tolyl)-4H-1,2,4-triazole-3-sulfanyl]-acetamide] |  |  |  | antibacterial activity [4]: good level of inhibition
